Laboratory results from patent US20250115665A1, “BISPECIFIC ANTIBODY AGAINST CD3 AND CD20 IN COMBINATION THERAPY FOR TREATING DIFFUSE LARGE B-CELL LYMPHOMA” (GENMAB A/S, priority 2022, published 2025).

Experiments:
[1] = tested on: highly refractory large B-cell lymphoma; settings: monotherapy, n=157; cited from earlier work
[2] = tested on: CD20-expressing Daudi cells; assay: DuoBody-CD3xCD20-induced T-cell-mediated cytotoxicity assay with lenalidomide pre-treated T cells; assay type: cell-based; settings: T cells pre-treated with lenalidomide and anti-CD3; Daudi target cells, E:T ratio 2:1
Description: T cells were incubated with (5 or 50 μM) or without lenalidomide in the absence or presence of immobilized anti-CD3 for 3 days. […] Data shown are average percentages cytotoxicity±SD of duplicates, normalized to medium control (no antibody, no lenalidomide).
(§1) Briefly, T cells were activated with immobilized anti-CD3 in the presence (5 or 50 μM) or absence of lenalidomide for 3 days. […] T cells that were activated in the presence or absence of lenalidomide were subsequently tested for their cytotoxic capacity in response to epcoritamab.

[3] = tested on: T cells; assay: T-cell activation with immobilized anti-CD3 in the presence or absence of lenalidomide; assay type: cell-based; settings: lenalidomide 5 or 50 μM, CD3 crosslinking by immobilized anti-CD3, 3 days; compared to no lenalidomide
Description: T cells were pre-incubated with assay medium or lenalidomide in the absence or presence of CD3 crosslinking by immobilized anti-CD3 for 3 days (as indicated on the x-axes), after which upregulation of CD69, CD25, PD-1 and LAMP-1 on CD4+ and CD8+ T cells was determined by flow cytometry. Data shown are geomean fluorescence intensities (FI) for four donors (each circle represents one condition for one donor). Pre-incubation conditions are shown on the x-axis.
as §1

Row | Molecule | complete response (CR) rate [1] | median duration of response (DOR) [1] | overall response rate (ORR) [1] | safety profile [1] | cytotoxic activity at lower antibody concentrations [2] | maximum percent cytotoxicity [2] | T-cell activation (upregulation of CD69, CD25 on the T cell surface, release of granzyme B and IFNγ) [3]
1 | epcoritamab: IgG1 bispecific CD3×CD20 antibody, heavy/light chains SEQ ID NOs: 24, 25 and 26, 27; CAS 2134641-34-0 | 39% | 12 months | 63% | manageable safety profile | higher activity at lower epcoritamab concentrations | Higher maximum percent cytotoxicity | –
2 | Nc1cccc2c1CN(C1CCC(=O)NC1=O)C2=O (stereo not shown) [lenalidomide, 3-(4-Amino-1-oxo-1,3-dihydro-2H-isoindol-2-yl) piperidine-2,6-dione] | – | – | – | – | – | – | increased T-cell activation
